Reference: US11478558B2, “Prostate-specific membrane antigen targeted high-affinity agents for endoradiotherapy of prostate cancer” (The Johns Hopkins University, priority 2017, dated 2022)
Like-named read-outs stand apart in the source and are kept apart here.

How the values were obtained:
PSMA(+) PC3 PIP cells = experiment: Cell uptake, cell surface binding and internalization in PSMA(+) PC3 PIP cells; format: cell-based, human; conditions: for Blockade PC3 PIP: ZJ43 10 μM; for total uptake within the PSMA(+) PC3 PIP cells: 1 h to 24 h
[1] = tested on: PSMA(+) PC3 PIP and PSMA(−) PC3 flu tumor xenografts; experiment: Biodistribution of 177Lu compounds (Example 5)
PSMA+ PC3 PIP tumors = experiment: Radiopharmaceutical therapy in PC3 PIP flank tumor growth delay model; format: in vivo, NOD/SCID mice; conditions: for Median survival After 8 weeks post-treatment / Tumors above stated relative tumor growth after week 8 post-treatment (Vt/V0) / Mouse death (number of mice): 111 MBq; for Mouse death (number of mice): up to week 8 post-treatment; for Average final body weight: single i.v. dose 111 MBq (3 mCi)
Description: (§1) A pilot treatment study using NOD/SCID mice (n=10 per group) bearing PSMA+ PC3 PIP tumors with a single intravenous dose of 111 MBq (3 mCi) of agents ^177Lu-PSMA-617, ^177Lu-1, ^177Lu-3 and ^177Lu-5 and the control group (with saline treatment) were performed (Table 8). Volume of the all control group mice reached >5-fold of their initial tumor volume within 14 days. Mouse euthanized for treated group within 4 weeks of post-injection was mainly due to sudden body weight loss and not related to tumor growth. […] The difference among treatment groups was statistically significant (P=0.002) by the log-rank test compared to the untreated group. […] After 8-weeks, three mice from each treated group were used for detailed blood analysis and necropsy study. All animals underwent radiotherapy study had normal creatinine (0.3-0.4 mg/dL) and blood urea nitrogen levels. […] Additionally, a significant lowering of platelet for all three treated mice from ^177Lu-PSMA-617 compared control group and other treated groups.
Median survival for the ^177Lu-PSMA-617 was 133 days vs. 234 days for ^177Lu-1.
The remaining treated mice survived tumor-free for 10 months and were evaluated for toxicity.
(§2) Antitumor efficacy studies were performed in PC3 PIP flank tumor growth delay model to evaluate the therapeutic efficacy of a single dose intravenous injection of ^177Lu-L1, ^177Lu-L3, ^177Lu-L5 and ^177Lu-PSMA-617 vs. saline. This was a head-to-head comparison study and same batch of tumor-bearing mice and radioactivity. The study was commenced 14-18 days post-inoculation of the xenografts, when all the mice had tumor volume of about ˜60-85 mm^3 (Table 8). All the living mice were monitored for 8 weeks to monitor the growth delay. Mice body weight and tumor volume were monitored every 3 days throughout the experiment. Endpoint criteria defined by the institute ACUC was weight loss≥15%, a tumor volume>1800 mm^3, active ulceration of the tumor or abnormal behavior indicating pain or unease. After 8-weeks, three mice from each group were submitted for detail necropsy and blood analysis. Mice group treated with ^177Lu-1 and ^177Lu-PSMA-617 were continued to monitor until the endpoint. These definitions were also used for Kaplan-Meier analysis. The probability of reaching 5 times the initial tumor volume was characterized using Kaplan-Meier curves, and comparison was performed using the log-rank test. The formula used for calculation of tumor volume was V=width^2×length/2. Toxicity of the ^177Lu-treatment groups after 8-weeks and in healthy CD-1 (n=3) mice treated with 111 MBq was evaluated by pathologic examination at the Johns Hopkins Pathology Core facility with serum metabolic panel, blood counts, and full necropsy including detailed histopathology of kidneys, salivary glands and lacrimal glands.

PSMA(−) PC3 flu cells = experiment: Cell uptake in PSMA(−) PC3 flu cells; format: cell-based, human
[2] = Blood analysis and necropsy after radiotherapy; format: in vivo, NOD/SCID mice
Description: as §1
Significant and concerning changes were identified in testes, and lacrimal grands primarily (FIG. 25) for all treated groups. […] Parotid glands, usually adjacent to exorbital lacrimal gland, are conspicuously spared and there were mild changes in the group treated ^177Lu-PSMA-617. […] T lymphoblastic lymphoma is accelerated by irradiation and some carcinogens, and is associated with interactions of endogenous retroviruses/retroelements in NOD/SCID mouse strains. […] The cells are large up to 25 μm, with very large nuclei (for a mouse) usually 2-3 nucleoli, and a high mitotic rate. Testis and lacrimal gland degenerative changes indicate that this animal did receive a treatment similar to other treated mice.
as §2

[3] = 111 MBq (3 mCi), after eight weeks, n=3

O=C(O)CC[C@H](NC(=O)N[C@@H](CCCCN(Cc1ccc(Br)cc1)C(=O)CCCCNC(=O)CN1CCN(CC(=O)O)CCN(CC(=O)O)CCN(CC(=O)O)CC1)C(=O)O)C(=O)O [Ligand L1, (14S,18S)-9-(4-Bromobenzyl)-2,8,16-trioxo-1-(4,7,10-tris(carboxymethyl)-1,4,7,10-tetraazacyclododecan-1-yl)-3,9,15,17-tetraazaicosane-14,18,20-tricarboxylic acid]
Specific Cell Surface Binding (PSMA(+) PC3 PIP cells): 36.49 ± 0.50 % IA/10^6 cells
specific internalization (PSMA(+) PC3 PIP cells): 23.68 ± 0.16 % IA/10^6 cells

O=C(O)CC[C@H](NC(=O)N[C@@H](CCCCNC(=O)CCCCCCC(=O)NCCCC[C@H](NC(=O)[C@@H](CCCCNC(=O)CCCc1ccc(I)cc1)NC(=O)CN1CCN(CC(=O)O)CCN(CC(=O)O)CCN(CC(=O)O)CC1)C(=O)O)C(=O)O)C(=O)O [Ligand L14, (3S,7S,26S,29R)-38-(4-iodophenyl)-5,13,20,28,35-pentaoxo-29-(2-(4,7,10-tris(carboxymethyl)-1,4,7,10-tetraazacyclododecan-1-yl)acetamido)-4,6,12,21,27,34-hexaazaoctatriacontane-1,3,7,26-tetracarboxylic acid]
Specific Cell Surface Binding (PSMA(+) PC3 PIP cells): 53.0 ± 1.3 % IA/10^6 cells

O=C(O)CC[C@H](NC(=O)N[C@@H](CCCCNC(=O)CCCCCCC(=O)NCCCC[C@@H](NC(=O)[C@@H](Cc1ccccc1)NC(=O)[C@@H](Cc1ccc(O)c(I)c1)NC(=O)CCC(C(=O)O)N1CCN(CC(=O)O)CCN(CC(=O)O)CCN(CC(=O)O)CC1)C(=O)O)C(=O)O)C(=O)O (some centres unmarked) [PSMA I&T, reference compound]
Specific Cell Surface Binding (PSMA(+) PC3 PIP cells; Table 6): 64.5 ± 2.3 % IA/10^6 cells
specific internalization (PSMA(+) PC3 PIP cells; Table 6): 21.1 ± 0.7 % IA/10^6 cells

O=C(O)CC[C@H](NC(=O)N[C@@H](CCCCNC(=O)[C@H](Cc1ccc2ccccc2c1)NC(=O)[C@H]1CC[C@H](CNC(=O)CN2CCN(CC(=O)O)CCN(CC(=O)O)CCN(CC(=O)O)CC2)CC1)C(=O)O)C(=O)O [PSMA-617, reference compound]
Specific Cell Surface Binding (PSMA(+) PC3 PIP cells): 44.6 ± 1.0 % IA/10^6 cells
specific internalization (PSMA(+) PC3 PIP cells): 21.1 ± 0.9 % IA/10^6 cells

O=C([O-])CN1CCN(CC(=O)[O-])CCN(CC(=O)N[C@H](CCCCNC(=O)CCCc2ccc(I)cc2)C(=O)N[C@@H](CCCCNC(=O)CCCCCCC(=O)NCCCC[C@H](NC(=O)N[C@@H](CCC(=O)O)C(=O)O)C(=O)O)C(=O)O)CCN(CC(=O)[O-])CC1.[177Lu+3] [^177Lu-14]
Kidney uptake ([1]; 48 h): 17.47±4.18 % ID/g
blood uptake ([1]; 48 h): 2.48±0.44 % ID/g
initial kidney uptake ([1]; time not given): 49.49±19.55 % ID/g
fold clearance of kidney activity ([1]; to 48 h): ~3 fold

O=C([O-])CN1CCN(CC(=O)[O-])CCN(CC(=O)NCc2ccc(C(=O)NCCCCCC(=O)N(CCCC[C@H](NC(=O)N[C@@H](CCC(=O)O)C(=O)O)C(=O)O)Cc3ccc(Br)cc3)cc2)CCN(CC(=O)[O-])CC1.[177Lu+3] [^177Lu-L3]
Median survival After 8 weeks post-treatment (PSMA+ PC3 PIP tumors): Not reached
Tumors above stated relative tumor growth after week 8 post-treatment (Vt/V0) (PSMA+ PC3 PIP tumors): Two tumor > 4
Mouse death (number of mice) (PSMA+ PC3 PIP tumors): Mouse death 3
Average final body weight (PSMA+ PC3 PIP tumors): 25.8 ± 2.6 gram
Cell uptake PC3 flu (PSMA(−) PC3 flu cells; 1 h): 0.1 ± 0.0 % incubated dose per 1 x 10^6 cells
Cell uptake PC3 flu (PSMA(−) PC3 flu cells; 2 h): 0.1 ± 0.0 % incubated dose per 1 x 10^6 cells
Cell uptake PC3 flu (PSMA(−) PC3 flu cells; 4 h): 0.1 ± 0.1 % incubated dose per 1 x 10^6 cells
Cell uptake PC3 flu (PSMA(−) PC3 flu cells; 24 h): 0.1 ± 0.0 % incubated dose per 1 x 10^6 cells
Cell uptake PC3 PIP (PSMA(+) PC3 PIP cells; 1 h): 27.0 ± 1.3 % incubated dose per 1 x 10^6 cells
PC3 PIP cell Int (internalization) (PSMA(+) PC3 PIP cells; 1 h): 21.4 ± 1.4 % incubated dose per 1 x 10^6 cells
Blockade PC3 PIP (PSMA(+) PC3 PIP cells; 1 h): 0.1 ± 0.0 % incubated dose per 1 x 10^6 cells
total uptake within the PSMA(+) PC3 PIP cells (PSMA(+) PC3 PIP cells): ~30 % of the incubated dose
Cell uptake PC3 PIP (PSMA(+) PC3 PIP cells; 2 h): 36.5 ± 0.3 % incubated dose per 1 x 10^6 cells
PC3 PIP, line without name (position of cell internalization) (PSMA(+) PC3 PIP cells; 2 h): 23.7 ± 0.2 % incubated dose per 1 x 10^6 cells
Cell uptake PC3 PIP (PSMA(+) PC3 PIP cells; 4 h): 32.6 ± 8.5 % incubated dose per 1 x 10^6 cells
PC3 PIP cell int (internalization) (PSMA(+) PC3 PIP cells; 4 h): 24.9 ± 3.4 % incubated dose per 1 x 10^6 cells
Cell uptake PC3 PIP (PSMA(+) PC3 PIP cells; 24 h): 45.2 ± 1.2 % incubated dose per 1 x 10^6 cells
PC3 PIP cell int (internalization) (PSMA(+) PC3 PIP cells; 24 h): 30.0 ± 0.7 % incubated dose per 1 x 10^6 cells

O=C([O-])CN1CCN(CC(=O)[O-])CCN(CC(=O)NCc2ccc(C(=O)NCCCCNC(=O)CCCCCCC(=O)N(CCCC[C@H](NC(=O)N[C@@H](CCC(=O)O)C(=O)O)C(=O)O)Cc3ccc(Br)cc3)cc2)CCN(CC(=O)[O-])CC1.[177Lu+3] [^177Lu-L5]
Median survival After 8 weeks post-treatment (PSMA+ PC3 PIP tumors): Not reached
Tumors above stated relative tumor growth after week 8 post-treatment (Vt/V0) (PSMA+ PC3 PIP tumors): one tumor > 5
Mouse death (number of mice) (PSMA+ PC3 PIP tumors): Mouse death 3
Average final body weight (PSMA+ PC3 PIP tumors): 27.5 ± 1.9 gram
Cell uptake PC3 flu (PSMA(−) PC3 flu cells; 1 h): 0.2 ± 0.1 % incubated dose per 1 x 10^6 cells
Cell uptake PC3 flu (PSMA(−) PC3 flu cells; 2 h): 0.0 ± 0.0 % incubated dose per 1 x 10^6 cells
Cell uptake PC3 flu (PSMA(−) PC3 flu cells; 4 h): 0.1 ± 0.0 % incubated dose per 1 x 10^6 cells
Cell uptake PC3 flu (PSMA(−) PC3 flu cells; 24 h): 0.1 ± 0.0 % incubated dose per 1 x 10^6 cells
Cell uptake PC3 PIP (PSMA(+) PC3 PIP cells; 1 h): 26.6 ± 0.6 % incubated dose per 1 x 10^6 cells
PC3 PIP cell Int (internalization) (PSMA(+) PC3 PIP cells; 1 h): 24.1 ± 0.5 % incubated dose per 1 x 10^6 cells
Blockade PC3 PIP (PSMA(+) PC3 PIP cells; 1 h): 0.0 ± 0.0 % incubated dose per 1 x 10^6 cells
total uptake within the PSMA(+) PC3 PIP cells (PSMA(+) PC3 PIP cells): ~30 % of the incubated dose
Cell uptake PC3 PIP (PSMA(+) PC3 PIP cells; 2 h): 29.23 ± 0.8 % incubated dose per 1 x 10^6 cells
PC3 PIP, line without name (position of cell internalization) (PSMA(+) PC3 PIP cells; 2 h): 25.0 ± 0.9 % incubated dose per 1 x 10^6 cells
Cell uptake PC3 PIP (PSMA(+) PC3 PIP cells; 4 h): 34.4 ± 1.2 % incubated dose per 1 x 10^6 cells
PC3 PIP cell int (internalization) (PSMA(+) PC3 PIP cells; 4 h): 26.1 ± 1.0 % incubated dose per 1 x 10^6 cells
Cell uptake PC3 PIP (PSMA(+) PC3 PIP cells; 24 h): 49.8 ± 1.4 % incubated dose per 1 x 10^6 cells
PC3 PIP cell int (internalization) (PSMA(+) PC3 PIP cells; 24 h): 27.9 ± 0.8 % incubated dose per 1 x 10^6 cells
Albumin [2, 3]: 3 ± 0.4 g/dL
Blood urea nitrogen [2, 3]: 22.7 ± 3.2 mg/dL
Hematocrit [2, 3]: 49.7 ± 2.4%
Hemoglobin [2, 3]: 14.3 ± 1.0 g/dL
Lymphocytes [2, 3]: 0.4 ± 0.1 K/μL
Mean Corpuscular Value(MCV) [2, 3]: 54.1 ± 1.4 fL
Neutrophils [2, 3]: 2.0 ± 1.8 K/μL
Platelets [2, 3]: 1415.3 ± 88.5 K/μL
Red blood cells [2, 3]: 9.2 ± 0.7 M/μL
Total protein [2, 3]: 5.9 ± 0.6 g/dL
White blood cells [2, 3]: 2.9 ± 1.8 K/μL
H&E pathology of testis ([2]; 111 MBq, after 8 weeks): most significant changes in testis
PSMA(+) PC3 PIP tumor uptake ([1]; 3 h post-injection): 56.3±18.3 % ID/g

O=C([O-])CN1CCN(CC(=O)[O-])CCN(CC(=O)O)C(Cc2ccc(NC(=S)NCCCCC(=O)NCCCC[C@H](NC(=O)N[C@@H](CCC(=O)O)C(=O)O)C(=O)O)cc2)CN(CC(=O)[O-])CC1.[177Lu+3] (some centres unmarked) [^177Lu-L7]
PSMA(+) PC3 PIP tumor uptake ([1]; 2 h): 25.4±7.2 % ID/g
PSMA(+) PC3 PIP tumor uptake ([1]; 24 h post-injection): 7.0±1.5 % ID/g
PSMA(+) PC3 PIP tumor uptake ([1]; 48 h): 7.0±3.3 % ID/g
PSMA(+) PC3 PIP tumor uptake ([1]; fourth time point, time not given): 2.3±0.0 % ID/g

O=C([O-])CN1CCN(CC(=O)[O-])CCN(CC(=O)NCC2CCC(C(=O)N(CCCCC(NC(=O)NC(CCC(=O)O)C(=O)O)C(=O)O)Cc3ccc(Br)cc3)CC2)CCN(CC(=O)[O-])CC1.[177Lu+3] (centres unmarked) [^177Lu-L11]
fold lower uptake compared to 177Lu-L1 (PSMA(+) PC3 PIP cells): > 1.5 fold
